Reference: US20250312499A1, “KISSPEPTIN RECEPTOR (KISS1R) TARGETED THERAPEUTICS AND USES THEREOF” (priority 2024, published 2025)
Square brackets hold non-standard residues; d marks the D form. Peptide text beside a SMILES is read from it. * marks the point of attachment. DOTA = O=C(O)CN1CCN(CC(=O)O)CCN(CC(=O)*)CCN(CC(=O)O)CC1; Gly(N-(3-F-4-Me-benzyl)) = Cc1ccc(CNCC(=O)*)cc1F; Gly(N-3-F-4-Me-benzyl) = Cc1ccc(CNCC(=O)O)cc1F; Bpa = N[C@@H](Cc1ccc(C(=O)c2ccccc2)cc1)C(=O)O; Bip = N[C@@H](Cc1ccc(-c2ccccc2)cc1)C(=O)O; Gly(Nα-CH2(4-Pyr)) = O=C(O)CNCc1ccncc1; HO(CH2CH2O)2CH2CH2CO = O=C(CCOCCOCCO)*; d2Nal = N[C@H](Cc1ccc2ccccc2c1)C(=O)O; NBzl(4-I)Gly = O=C(O)CNCc1ccc(I)cc1; d4Pal = N[C@H](Cc1ccncc1)C(=O)O; N(octyl)Gly = CCCCCCCCNCC(=O)O; X5 = O=C(CNCc1ccc2ccccc2c1)*; X15 = O=C(CNCCc1ccc(I)cc1)*; Api = NC1(C(=O)O)CCNCC1; X13 = O=C(CNCC1CCSCC1)*; PEG2 = NCCOCCOCCC(=O)O; Ahx = NCCCCCC(=O)O; azaGly = NNC(=O)O; Sar = CNCC(=O)O

Biological target: human kisspeptin receptor (Homo sapiens (Human), UniProt Q969F8)
Sequence (Q969F8 whole entry): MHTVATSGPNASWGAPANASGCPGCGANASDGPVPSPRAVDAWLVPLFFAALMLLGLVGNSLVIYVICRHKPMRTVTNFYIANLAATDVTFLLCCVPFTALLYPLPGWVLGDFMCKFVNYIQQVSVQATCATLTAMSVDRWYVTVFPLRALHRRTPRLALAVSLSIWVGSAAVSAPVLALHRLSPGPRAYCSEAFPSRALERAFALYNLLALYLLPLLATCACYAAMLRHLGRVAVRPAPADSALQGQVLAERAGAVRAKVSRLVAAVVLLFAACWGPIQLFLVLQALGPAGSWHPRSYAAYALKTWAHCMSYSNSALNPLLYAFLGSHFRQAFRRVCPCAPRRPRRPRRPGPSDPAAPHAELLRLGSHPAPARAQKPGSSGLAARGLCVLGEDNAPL
Experiment: Human KISS1R binding assay (membrane competition binding)
Conditions: 90 min at room temperature; competition with 0.2 nM [125I]-metastin (45-54); Flp-In T-Rex 293 kisspeptin membranes; metal complexes nonradioactive Ga, In, Lu; read-out: hKiSSR Binding Ki (90 min)
Outline: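 Radioligand competition: 0.2 nM [125I]-metastin (45-54) displaced by test ligand (usually 0–10,000 nM) over 90 min at room temperature, pH 7.4 buffer with 0.1% BSA. Receptor source is crude membrane (5–10 μg) from tetracycline-induced Flp-In T-Rex 293 cells. Bound label filtered and counted; Ki from non-linear regression.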

Compound | Ki
CNCC(=O)N1CCC(NC(=O)[C@H](CC(C)C)NC(=O)NNC(=O)[C@H](Cc2ccccc2)NC(=O)[C@@H](NC(=O)[C@H](CC(N)=O)NC(=O)[C@H](CCCCNC(=O)CN2CCN(CC(=O)O)CCN(CC(=O)O)CCN(CC(=O)O)CC2)NC(=O)[C@@H](Cc2ccc(O)cc2)NC(=O)CNCc2ccc(C)c(F)c2)[C@@H](C)O)(C(=O)N[C@H](Cc2c[nH]c3ccccc23)C(N)=O)CC1 [Compound 360] (H-[Gly(N-3-F-4-Me-benzyl)][dY]K(DOTA)NTF[azaGly]L[Api](Sar)[dW]-NH2) | < 10 nM
Cc1ccc(CNCC(=O)N2CCC(NC(=O)[C@H](CC(C)C)NC(=O)NNC(=O)[C@H](Cc3ccccc3)NC(=O)[C@@H](NC(=O)[C@H](CC(N)=O)NC(=O)[C@H](Cc3ccc(-c4ccccc4)cc3)NC(=O)[C@@H](Cc3ccc(O)cc3)NC(=O)CCCCCNC(=O)CN3CCN(CC(=O)O)CCN(CC(=O)O)CCN(CC(=O)O)CC3)[C@@H](C)O)(C(=O)N[C@@H](Cc3c[nH]c4ccccc34)C(N)=O)CC2)cc1F [Compound 363] ({DOTA-Ahx}-[dY][Bip]NTF[azaGly]L[Api](Gly(N-(3-F-4-Me-benzyl)))W-NH2) | < 10 nM
Cc1ccc(CNCC(=O)N2CCC(NC(=O)[C@H](CC(C)C)NC(=O)NNC(=O)[C@H](Cc3ccccc3)NC(=O)[C@@H](NC(=O)[C@H](CC(N)=O)NC(=O)[C@H](Cc3ccc(C(=O)c4ccccc4)cc3)NC(=O)[C@@H](Cc3ccc(O)cc3)NC(=O)CCCCCNC(=O)CN3CCN(CC(=O)O)CCN(CC(=O)O)CCN(CC(=O)O)CC3)[C@@H](C)O)(C(=O)N[C@@H](Cc3c[nH]c4ccccc34)C(N)=O)CC2)cc1F [Compound 364] ({DOTA-Ahx}-[dY][Bpa]NTF[azaGly]L[Api](Gly(N-(3-F-4-Me-benzyl)))W-NH2) | < 10 nM
Cc1ccc(CNCC(=O)N2CCC(NC(=O)[C@H](CC(C)C)NC(=O)NNC(=O)[C@H](Cc3ccccc3)NC(=O)[C@@H](NC(=O)[C@H](CC(N)=O)NC(=O)[C@@H](Cc3ccc4ccccc4c3)NC(=O)[C@@H](Cc3ccc(O)cc3)NC(=O)CNC(=O)CN3CCN(CC(=O)O)CCN(CC(=O)O)CCN(CC(=O)O)CC3)[C@@H](C)O)(C(=O)N[C@@H](Cc3c[nH]c4ccccc34)C(N)=O)CC2)cc1F [Compound 365] ({DOTA}-G[dY][d2Nal]NTF[azaGly]L[Api](Gly(N-(3-F-4-Me-benzyl)))W-NH2) | < 10 nM
Cc1ccc(CNCC(=O)N2CCC(NC(=O)[C@H](CC(C)C)NC(=O)NNC(=O)[C@H](Cc3ccccc3)NC(=O)[C@@H](NC(=O)[C@H](CC(N)=O)NC(=O)[C@@H](Cc3c[nH]c4ccccc34)NC(=O)[C@@H](Cc3ccc(O)cc3)NC(=O)CCCCCNC(=O)CN3CCN(CC(=O)O)CCN(CC(=O)O)CCN(CC(=O)O)CC3)[C@@H](C)O)(C(=O)N[C@@H](Cc3ccc(O)cc3)C(N)=O)CC2)cc1F [Compound 366] ({DOTA-Ahx}-[dY][dW]NTF[azaGly]L[Api](Gly(N-(3-F-4-Me-benzyl)))Y-NH2) | < 10 nM
Cc1ccc(CNCC(=O)N2CCC(NC(=O)[C@H](CC(C)C)NC(=O)NNC(=O)[C@H](Cc3ccccc3)NC(=O)[C@@H](NC(=O)[C@H](CC(N)=O)NC(=O)[C@@H](Cc3ccc4ccccc4c3)NC(=O)[C@@H](Cc3ccc(O)cc3)NC(=O)CCCCCNC(=O)CN3CCN(CC(=O)O)CCN(CC(=O)O)CCN(CC(=O)O)CC3)[C@@H](C)O)(C(=O)N[C@@H](Cc3ccc(O)cc3)C(N)=O)CC2)cc1F [Compound 367] ({DOTA-Ahx}-[dY][d2Nal]NTF[azaGly]L[Api](Gly(N-(3-F-4-Me-benzyl)))Y-NH2) | < 10 nM
Cc1ccc(CNCC(=O)N2CCC(NC(=O)[C@H](CC(C)C)NC(=O)NNC(=O)[C@H](Cc3ccccc3)NC(=O)[C@@H](NC(=O)[C@H](CC(N)=O)NC(=O)[C@@H](Cc3ccncc3)NC(=O)[C@@H](Cc3ccc(O)cc3)NC(=O)CCOCCOCCNC(=O)CN3CCN(CC(=O)O)CCN(CC(=O)O)CCN(CC(=O)O)CC3)[C@@H](C)O)(C(=O)N[C@@H](Cc3c[nH]c4ccccc34)C(N)=O)CC2)cc1F [Compound 368] ({DOTA-PEG2}-[dY][d4Pal]NTF[azaGly]L[Api](Gly(N-(3-F-4-Me-benzyl)))W-NH2) | < 10 nM
CC(C)C[C@H](NC(=O)NNC(=O)[C@H](Cc1ccccc1)NC(=O)[C@@H](NC(=O)[C@H](CC(N)=O)NC(=O)[C@@H](Cc1ccc2ccccc2c1)NC(=O)[C@@H](Cc1ccc(O)cc1)NC(=O)CCCCCNC(=O)CN1CCN(CC(=O)O)CCN(CC(=O)O)CCN(CC(=O)O)CC1)[C@@H](C)O)C(=O)NC1(C(=O)N[C@H](Cc2c[nH]c3ccccc23)C(N)=O)CCN(C(=O)CNCc2ccncc2)CC1 [Compound 370] ({DOTA-Ahx}-[dY][d2Nal]NTF[azaGly]L[Api](Gly(Nα-CH2(4-Pyr)))[dW]-NH2) | > 100 nM
CC(C)C[C@H](NC(=O)NNC(=O)[C@H](Cc1ccccc1)NC(=O)[C@@H](NC(=O)[C@H](CC(N)=O)NC(=O)[C@@H](Cc1ccc2ccccc2c1)NC(=O)[C@@H](Cc1ccc(O)cc1)NC(=O)CCCCCNC(=O)CN1CCN(CC(=O)O)CCN(CC(=O)O)CCN(CC(=O)O)CC1)[C@@H](C)O)C(=O)NC1(C(=O)N[C@H](Cc2c[nH]c3ccccc23)C(N)=O)CCN(C(=O)CNCc2ccc(I)cc2)CC1 [Compound 371] ({DOTA-Ahx}-[dY][d2Nal]NTF[azaGly]L[Api](NBzl(4-I)Gly)[dW]-NH2) | < 10 nM
CC(C)C[C@H](NC(=O)NNC(=O)[C@H](Cc1ccccc1)NC(=O)[C@@H](NC(=O)[C@H](CC(N)=O)NC(=O)[C@@H](Cc1ccc2ccccc2c1)NC(=O)[C@@H](Cc1ccc(O)cc1)NC(=O)CCCCCNC(=O)CN1CCN(CC(=O)O)CCN(CC(=O)O)CCN(CC(=O)O)CC1)[C@@H](C)O)C(=O)NC1(C(=O)N[C@H](Cc2c[nH]c3ccccc23)C(N)=O)CCN(C(=O)CNCCc2ccc(I)cc2)CC1 [Compound 373] ({DOTA-Ahx}-[dY][d2Nal]NTF[azaGly]L[Api](X15)[dW]-NH2) | 10 to 100 nM

Other lines, results leading:

Ki | Compound
< 10 nM | CCCCCCCCNCC(=O)N1CCC(NC(=O)[C@H](CC(C)C)NC(=O)NNC(=O)[C@H](Cc2ccccc2)NC(=O)[C@@H](NC(=O)[C@H](CC(N)=O)NC(=O)[C@@H](Cc2ccc3ccccc3c2)NC(=O)[C@@H](Cc2ccc(O)cc2)NC(=O)CCCCCNC(=O)CN2CCN(CC(=O)O)CCN(CC(=O)O)CCN(CC(=O)O)CC2)[C@@H](C)O)(C(=O)N[C@H](Cc2c[nH]c3ccccc23)C(N)=O)CC1 [Compound 374] ({DOTA-Ahx}-[dY][d2Nal]NTF[azaGly]L[Api](N(octyl)Gly)[dW]-NH2)
> 100 nM | CC(C)C[C@H](NC(=O)NNC(=O)[C@H](Cc1ccccc1)NC(=O)[C@@H](NC(=O)[C@H](CC(N)=O)NC(=O)[C@@H](Cc1ccc2ccccc2c1)NC(=O)[C@@H](Cc1ccc(O)cc1)NC(=O)CCCCCNC(=O)CN1CCN(CC(=O)O)CCN(CC(=O)O)CCN(CC(=O)O)CC1)[C@@H](C)O)C(=O)NC1(C(=O)N[C@H](Cc2c[nH]c3ccccc23)C(N)=O)CCN(C(=O)CNCC2CCSCC2)CC1 [Compound 375] ({DOTA-Ahx}-[dY][d2Nal]NTF[azaGly]L[Api](X13)[dW]-NH2)
10 to 100 nM | CC(C)C[C@H](NC(=O)NNC(=O)[C@H](Cc1ccccc1)NC(=O)[C@@H](NC(=O)[C@H](CC(N)=O)NC(=O)[C@@H](Cc1ccc2ccccc2c1)NC(=O)[C@@H](Cc1ccc(O)cc1)NC(=O)CCCCCNC(=O)CN1CCN(CC(=O)O)CCN(CC(=O)O)CCN(CC(=O)O)CC1)[C@@H](C)O)C(=O)NC1(C(=O)N[C@H](Cc2c[nH]c3ccccc23)C(N)=O)CCN(C(=O)CNCc2ccc3ccccc3c2)CC1 [Compound 376] ({DOTA-Ahx}-[dY][d2Nal]NTF[azaGly]L[Api](X5)[dW]-NH2)
< 10 nM | Cc1ccc(CNCC(=O)N2CCC(NC(=O)[C@H](CC(C)C)NC(=O)NNC(=O)[C@H](Cc3ccccc3)NC(=O)[C@@H](NC(=O)[C@H](CC(N)=O)NC(=O)[C@H](CCCCNC(=O)CN3CCN(CC(=O)O)CCN(CC(=O)O)CCN(CC(=O)O)CC3)NC(=O)[C@@H](Cc3ccc(O)cc3)NC(=O)CCOCCOCCO)[C@@H](C)O)(C(=O)N[C@@H](Cc3c[nH]c4ccccc34)C(N)=O)CC2)cc1F [Compound 379] ({HO(CH2CH2O)2CH2CH2CO}-[dY]K(DOTA)NTF[azaGly]L[Api](Gly(N-(3-F-4-Me-benzyl)))W-NH2)
< 10 nM | CC(=O)N[C@H](Cc1ccc(O)cc1)C(=O)N[C@@H](CCCCNC(=O)CN1CCN(CC(=O)O)CCN(CC(=O)O)CCN(CC(=O)O)CC1)C(=O)N[C@@H](CC(N)=O)C(=O)N[C@H](C(=O)N[C@@H](Cc1ccccc1)C(=O)NNC(=O)N[C@@H](CC(C)C)C(=O)NC1(C(=O)N[C@@H](Cc2c[nH]c3ccccc23)C(N)=O)CCN(C(=O)CNCc2ccc(C)c(F)c2)CC1)[C@@H](C)O [Compound 380] (Ac-[dY]K(DOTA)NTF[azaGly]L[Api](Gly(N-(3-F-4-Me-benzyl)))W-NH2)
< 10 nM | Cc1ccc(CNCC(=O)N2CCC(NC(=O)[C@H](CC(C)C)NC(=O)NNC(=O)[C@H](Cc3ccccc3)NC(=O)[C@@H](NC(=O)[C@H](CC(N)=O)NC(=O)[C@@H](Cc3c[nH]c4ccccc34)NC(=O)[C@@H](Cc3ccc(O)cc3)NC(=O)CCOCCOCCNC(=O)CN3CCN(CC(=O)O)CCN(CC(=O)O)CCN(CC(=O)O)CC3)[C@@H](C)O)(C(=O)N[C@@H](Cc3c[nH]c4ccccc34)C(N)=O)CC2)cc1F [Compound 382] ({DOTA-PEG2}-[dY][dW]NTF[azaGly]L[Api](Gly(N-(3-F-4-Me-benzyl)))W-NH2)
< 10 nM | Cc1ccc(CNCC(=O)N2CCC(NC(=O)[C@H](CC(C)C)NC(=O)NNC(=O)[C@H](Cc3ccccc3)NC(=O)[C@@H](NC(=O)[C@H](CC(N)=O)NC(=O)[C@@H](Cc3c[nH]c4ccccc34)NC(=O)[C@@H](Cc3ccc(O)cc3)NC(=O)CCCCCNC(=O)CN3CCN(CC(=O)O)CCN(CC(=O)O)CCN(CC(=O)O)CC3)[C@@H](C)O)(C(=O)N[C@H](Cc3c[nH]c4ccccc34)C(N)=O)CC2)cc1F [Compound 383] ({DOTA-Ahx}-[dY][dW]NTF[azaGly]L[Api](Gly(N-(3-F-4-Me-benzyl)))[dW]-NH2)
